Holding throughout (format): cell-based
In assay [1] the target is T1, human P2X3 receptor (Homo sapiens, UniProt P56373).
T1 sequence (P56373 1-397): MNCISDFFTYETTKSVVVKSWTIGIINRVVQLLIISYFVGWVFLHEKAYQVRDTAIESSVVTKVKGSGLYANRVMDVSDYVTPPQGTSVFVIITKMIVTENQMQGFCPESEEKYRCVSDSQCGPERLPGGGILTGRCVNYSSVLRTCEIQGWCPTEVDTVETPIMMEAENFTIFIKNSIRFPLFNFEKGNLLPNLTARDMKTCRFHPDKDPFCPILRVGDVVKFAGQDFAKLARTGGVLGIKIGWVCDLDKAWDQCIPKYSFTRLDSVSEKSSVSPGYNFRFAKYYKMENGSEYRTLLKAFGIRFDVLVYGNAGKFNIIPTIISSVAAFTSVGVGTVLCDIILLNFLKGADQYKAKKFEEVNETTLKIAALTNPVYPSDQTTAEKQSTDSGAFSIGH
The experiment in a line: Intracellular calcium measurement to assess antagonist activity at human P2X3 receptors (hP2X3 CHO), photina luminescence. To be noted: column 2), CHO cells, agonist α,β-methylene-ATP at EC50. The arrangement: expressed in transfected cells; host or cells: Chinese hamster ovary (CHO) cells. The method in brief:
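CHO cells stably expressing human P2X3 and mitochondrial photina, plated the day before at 30 °C, then loaded 3 h at 37 °C in 2 mM Ca-tyrode buffer with 5 μg/ml coelenterazine. Agonist-evoked calcium luminescence read immediately; inhibition seen as signal decrease.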
A general note: A change in cytosolic calcium serves as a functional read-out for many receptors and channels.

Assay [2] concerns the target T1, human P2X3 receptor. The experiment in a line: Intracellular calcium measurement, antagonist activity at human P2X3 receptors (hP2X3 1321N1), Fluo8. Details: expressed in transfected cells; host or cells: human astrocytoma 1321N1 (1312N1 [sic]). To be noted: column 3); 1321N1 cells, human P2X3, Fluo8, agonist ATP at EC50. The method in brief:
(§1)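 Inhibition of ATP-triggered Ca2+ transients is measured in 1321N1 cells expressing P2X3 homotrimers or P2X2/3 heterotrimers.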

The next assay deals with T2, human P2X2/3 receptors (Homo sapiens, UniProt P56373+Q9UBL9).
T2 construct: expressed in transfected cells; host or cells: human astrocytoma 1321N1 (1312N1 [sic])
T2 sequence (P56373 1-397): T1 sequence (P56373 1-397)
T2 sequence (Q9UBL9 1-471): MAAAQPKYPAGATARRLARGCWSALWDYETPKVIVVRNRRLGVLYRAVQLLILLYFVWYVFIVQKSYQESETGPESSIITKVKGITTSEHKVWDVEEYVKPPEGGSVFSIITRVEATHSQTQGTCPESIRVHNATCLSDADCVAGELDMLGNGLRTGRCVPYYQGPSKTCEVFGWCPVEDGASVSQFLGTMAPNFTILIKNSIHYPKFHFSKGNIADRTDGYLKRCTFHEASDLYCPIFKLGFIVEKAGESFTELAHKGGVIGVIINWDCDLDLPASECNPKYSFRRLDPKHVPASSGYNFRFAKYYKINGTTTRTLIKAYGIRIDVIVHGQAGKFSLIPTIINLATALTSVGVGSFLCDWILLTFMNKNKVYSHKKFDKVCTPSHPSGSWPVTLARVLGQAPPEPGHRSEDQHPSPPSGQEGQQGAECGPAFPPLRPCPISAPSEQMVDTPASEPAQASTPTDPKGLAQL
The experiment in a line: Intracellular calcium measurement, antagonist activity at human P2X2/3 receptors (hP2X23 1321N1), Fluo8. As to conditions: for IC50: column 4); 1321N1 cells, human P2X2/3, Fluo8, agonist ATP at EC50; read-out: 4) hP2X2/3 IC50 [nM] (1321N1); for hP2X23/hP2X3* Selectivity (1321N1): ratio of column 4) hP2X2/3 to column 3) hP2X3, 1321N1. The method in brief: as §1

The target in assay [3] is T1, human P2X3 receptor. The experiment in a line: Intracellular calcium measurement to assess antagonist activity at human P2X3 receptors (hP2X3 FLIPR). Details: expressed in transfected cells; host or cells: human astrocytoma 1321N1 (1312N1 [sic]). As to conditions: head prints (1321N1); read-out: 1) hP2X3 IC50 [nM] (1321N1). The method, then:
1) Intracellular Calcium Measurement to Assess Antagonist Activity at Human P2X3 Receptors (hP2X3 FLIPR)
A fluorescent imaging plate reader (FLEX/FLIPR station; Molecular Devices) was used to monitor intracellular calcium levels using the calcium-chelating dye Fluo-4 (Molecular Probes). The excitation and emission wavelengths used to monitor fluorescence were 470-495 nm and 515-575 nm, respectively. The human astrocytoma […] cells expressing purinergic receptors P2X3 (human) were plated at a density of 15,000 cells/well in collagen—coated 384-well plates approximately 20 hours before beginning the assay. […] The dye supernatant was removed and replaced with 45 μl probenecid buffer (Hank's balanced salt solution, 20 mM HEPES, 0.5 mM CaCl2, 0.5 mM MgCl2, 0.1% BSA, 5 mM probenecid, 10 mM D-glucose monohydrate, pH=7.4). The test compounds were added in a volume of 5 μl and allowed to incubate for 30 min at 37° C. The final assay DMSO concentration is 1%. […] The fluorescence was measured for an interval of 90 sec at 2 sec intervals and analyzed based on the increase in peak relative fluorescence units (RFU) compared to the basal fluorescence. Peak fluorescence was used to determine the response to agonist obtained at each concentration of test compound by the following equation: Response=100*(RFU(test compound)−RFU(control))/(RFU(DMSO)−RFU(control))
The Examples were tested in triplicates per plate and mean values were plotted in Excel XLFit to determine IC50 values at the human P2X3 and human P2X2/3 receptors, percentage of maximal inhibition and the Hill coefficients.

Each structure is given as a SMILES string.

Experimental findings from patent publication US11319324B2, “Pyrazolo-pyrrolo-pyrimidine-dione derivatives as P2X3 inhibitors” (Bayer Aktiengesellschaft, priority 2017, dated 2022) are described below.

As to `Cc1cc2n(CC(=O)Nc3ccc(F)cn3)c3c(c(=O)n2n1)CN(C(C)C)C3=O` [Example 23], the IC50 is 64 nM at human P2X3 receptor [1], 153 nM on human P2X3 receptor [2], above 20600 nM on human P2X2/3 receptors and 80 nM at human P2X3 receptor [3]. In addition, on human P2X2/3 receptors, the “hP2X23/hP2X3* Selectivity (1321N1)” value was above 11134.
The matching figures for `CCc1cc2n(CC(=O)Nc3ccc(F)cn3)c3c(c(=O)n2n1)CN(C(C)C)C3=O` [Example 24]: 60 nM, 76 nM, 10000 nM, 35 nM and 132.
Regarding `COCC(C)N1Cc2c(n(CC(=O)Nc3ccc(F)cn3)c3cc(C(C)(C)C)nn3c2=O)C1=O` (stereo not drawn) [Example 25], the IC50 at human P2X3 receptor [1] turned out to be 23 nM; on human P2X3 receptor [2] it was 11 nM; at human P2X2/3 receptors it was 7150 nM; at human P2X3 receptor [3], 10 nM. The “hP2X23/hP2X3* Selectivity (1321N1)” value at human P2X2/3 receptors is 624.
Taken in the same sequence, the figures for `CC(C)(C)c1cc2n(CC(=O)Nc3ccc(F)cn3)c3c(c(=O)n2n1)CN(C1CCCC1)C3=O` [Example 26] were 20 nM, 46 nM, 2450 nM, 22 nM and 54.
The matching figures for `CC(C)(C)c1cc2n(CC(=O)Nc3ccc(F)cn3)c3c(c(=O)n2n1)CN(C1COC1)C3=O` [Example 27]: 118 nM, 205 nM, above 21000 nM, 95 nM and above 102.
As for `CC(C)(C)c1cc2n(CC(=O)Nc3ccc(F)cn3)c3c(c(=O)n2n1)CN(CC1CCOCC1)C3=O` [Example 28], the IC50 came to 305 nM at human P2X3 receptor [1], 410 nM at human P2X3 receptor [2], 12300 nM on human P2X2/3 receptors and 146 nM at human P2X3 receptor [3]. Besides, on human P2X2/3 receptors, the “hP2X23/hP2X3* Selectivity (1321N1)” value worked out at 30.
The matching figures for `CC(C)N1Cc2c(n(CC(=O)Nc3ccc(Cl)cn3)c3cc(C(F)(F)F)nn3c2=O)C1=O` [Example 29]: 41 nM, 36 nM, 4150 nM, 62 nM and 115.
The matching figures for `Cc1ccc(NC(=O)Cn2c3c(c(=O)n4nc(C(F)(F)F)cc24)CN(C(C)C)C3=O)nc1` [Example 30]: 170 nM, 393 nM, above 21500 nM, 344 nM and above 55.
Taken in the same sequence, the figures for `CC(C)N1Cc2c(n(CC(=O)Nc3ccc(F)cn3)c3cc(C(F)(F)F)nn3c2=O)C1=O` [Example 31] were 120 nM, 277 nM, above 32000 nM, 130 nM and above 116.
On to `CC(C)(O)CN1Cc2c(n(CC(=O)Nc3ccc(F)cn3)c3cc(C(C)(C)C)nn3c2=O)C1=O` [Example 32], for which the IC50 at human P2X3 receptor [1] was 121 nM; on human P2X3 receptor [2], 170 nM; at human P2X2/3 receptors, 12000 nM; at human P2X3 receptor [3] it was 139 nM. The “hP2X23/hP2X3* Selectivity (1321N1)” value at human P2X2/3 receptors came to 71.
The matching figures for `CC(C)(C)c1cc2n(CC(=O)Nc3ccc(F)cn3)c3c(c(=O)n2n1)CN(C1CCOCC1)C3=O` [Example 33]: 165 nM, 297 nM, above 21500 nM, 276 nM and above 72.
Take `COC[C@H](C)N1Cc2c(n(CC(=O)Nc3ccc(F)cn3)c3cc(C(C)(C)C)nn3c2=O)C1=O` [Example 35]: the IC50 at human P2X3 receptor [1] is 20 nM; at human P2X3 receptor [2] it was 16 nM; on human P2X2/3 receptors, 5650 nM; on human P2X3 receptor [3], 12 nM. The “hP2X23/hP2X3* Selectivity (1321N1)” value at human P2X2/3 receptors came to 353.
